Measurements as given in a melting point compilation (Tetko et al.).

Row | melting point | SMILES
1 | 92.5 °C | CCOCOc1ccc(C(=O)Nc2cccc(Cl)c2Cl)cc1
2 | 80 to 81 °C | Ic1ccc(Cn2cccn2)cc1
3 | 138 °C | O=C(Nc1ccccc1)OCc1c([N+](=O)[O-])cccc1[N+](=O)[O-]
4 | 314 °C | CC1(C)CC(=O)C2=C(C1)Nc1ccc3ccccc3c1C2c1ccccc1 (stereo unspecified)
5 | 125 °C | Cc1ccc(C(=O)O)c(C)c1
6 | 210 °C | NC(=O)/C(=C\c1ccccc1O)c1nc2ccccc2s1
7 | 80 °C | Cc1sc(-c2cccnc2)nc1-c1ccccc1
8 | 85 to 86 °C | CC(=O)OCc1cn(C(C)=O)c2ccccc12
9 | 60 °C | CCCCC(=O)NN
10 | 152 °C | CC12CCC(C(=CC(N)=O)C1=O)C2(C)C (stereo unspecified)
11 | 188 °C | O=C(O)c1ccccc1-c1cccnc1
12 | 186 °C | CN(C)c1ccc(C2CC(c3ccc4ccccc4c3)=NN2c2ccccc2)cc1 (stereo unspecified)
13 | 175 to 177 °C | c1ccc2c(c1)ccc1nncn12
14 | 104 °C | CC(C)(C)OC(=O)N[C@H](CC(=O)O)Cc1ccccc1
15 | 47 °C | COc1cc(Cl)ccc1CO
16 | 182 °C | Nc1ccc(S(=O)(=O)NC(=O)c2ccccc2)cc1
17 | 229 to 230 °C | CCCCCCCCCCCCCCCC(=O)OCC(COP(=O)([O-])OCC[N+](C)(C)C)OC(=O)CCCCCCCCCCCCCCC (stereo unspecified)
18 | 87 °C | CC(=O)c1c(C(C)C)cc(C(C)C)cc1C(C)C
19 | 183 °C | [O-][N+](=Nc1cccc(O)c1)c1cccc(O)c1
20 | 50 to 52 °C | CCOC(=O)c1ccc(OC)c(OC)c1Cl
21 | 65.5 °C | CC(C)OC(=O)C1(S(=O)(=O)c2ccc([N+](=O)[O-])cc2)CCC1
22 | 46 °C | CC(=O)OC(OC(C)=O)c1ccccc1
23 | 1 °C | CC1CCS(=O)(=O)C1 (stereo unspecified)

Row | melting point | SMILES
24 | 50 °C | COC(=O)c1ccccc1C#N
25 | 197 °C | BrCc1c(CBr)c(CBr)c2ccccc2c1CBr
26 | -10 °C | COC(=O)CC(=O)OC(C)(C)C
27 | 130 °C | COc1cc(C(=O)Nc2ccc3nn(C4CCCCC4)nc3c2)cc(OC)c1OC
28 | 50 to 51 °C | O=S(=O)(Cl)c1ccccc1Br
29 | 87 °C | COC(=O)c1cc(O)ccc1O
30 | 248 °C | Nc1ccc(S(=O)(=O)Nc2cnc3ccccc3n2)cc1
31 | 91 °C | Cc1c(Br)cc(N)cc1Br
32 | 218 °C | CC(=O)NC(N)=O
33 | 172 °C | CC1=C(CCC(=O)O)c2cc3nc(cc4[nH]c(cc5[nH]c(cc1n2)c(C)c5C(C)O)c(C)c4C(C)O)C(C)=C3CCC(=O)O (stereo unspecified)
34 | 76 °C | OCC(CO)(CO)CBr
35 | 152 °C | OC1OC(COCc2ccccc2)C(OCc2ccccc2)C(OCc2ccccc2)C1OCc1ccccc1 (stereo unspecified)
36 | 135 °C | Cc1cc2c(o1)-c1c(oc3ccccc13)CCC2(C)c1ccccc1 (stereo unspecified)
37 | 240 to 248 °C | O=C1OC(O)c2c(Cl)c(Cl)c(Cl)c(Cl)c21 (stereo unspecified)
38 | 130 °C | COC(=O)COC(=O)c1ccc2c(O)c(C(=O)OC)oc2c1
39 | 40 °C | COc1cc(F)c(F)cc1OC
40 | 110 to 111 °C | COC(=O)c1csc2c(C(F)(F)F)cc(Cl)nc12
41 | 74 to 76 °C | Cc1nn(C)c(N2CCOCC2)c1C=O
42 | 32 °C | CCCCCCCCCCC(O)CC (stereo unspecified)
43 | 11 to 12 °C | COC(=O)C(OC)C(=O)OC
44 | 46 °C | Cc1ccc(C=O)cc1[N+](=O)[O-]
45 | 195 to 197 °C | Brc1ccc2[nH]c3ccccc3c2c1
46 | 111 to 114 °C | COc1ccc2cc(C(C)O)ccc2c1 (racemic)

Row | melting point | SMILES
47 | 56 °C | COc1ccc(C#N)c(OC)c1OC
48 | 142 to 145 °C | CCC1CC(NC(C)=O)CC(C)(C)N1O (stereo unspecified)
49 | 62 to 64 °C | Cn1nc(C=O)cc1-c1ccco1
50 | 61 to 65 °C | CCCCCCCCCCOc1ccc(C(C)=O)cc1OCCCCCCCCCC
51 | 108 °C | CNC(=O)NC
52 | 240 °C | CC(=O)Nc1ccc(S(=O)(=O)Nc2ccc([N+](=O)[O-])cc2)cc1
53 | 32.3 °C | Cc1cccc(C)c2cc(C(C)C)cc1-2
54 | 160 to 162 °C | COC(=O)C1=C(C)NC(=O)C1CC(=O)O (stereo unspecified)
55 | 252 to 256 °C | Cc1c(S(=O)(=O)c2ccc(Cl)cc2)csc1C(=O)O
56 | 280 °C | CC(C=Cc1ccc(C=CC(C)=NO)cc1)=NO
57 | 111 to 115 °C | C1COCCOCCNCCOCCOCCN1
58 | 16 °C | O=C(O)CCCCl
59 | -70 °C | CCO[Si](C)(C)OCC
60 | 152 °C | CCc1ccc2cc3ccccc3cc2c1
61 | 46.5 °C | CC1c2ccccc2-c2ccccc21
62 | -101 °C | CC1CCCS1 (stereo unspecified)
63 | 177 °C | CC1=CC=CC2(C)Cc3ccccc3C(=O)N12 (stereo unspecified)
64 | 197 °C | CC12CCC(C(=CNC(N)=O)C1=O)C2(C)C (stereo unspecified)
65 | 121 °C | O=C1/C(=C/c2ccccc2)SC(=S)N1CN1CCOCC1
66 | 216 °C | Nc1nnc(Sc2ncccc2[N+](=O)[O-])s1
67 | 211 °C | Cc1cccc(N/N=C(\C#N)c2nc(C)c(/N=N/c3ccccc3)s2)c1
68 | 162 °C | NC(=O)CSSCC(N)=O
69 | 179 °C | O=C(O)c1cccc(O)c1[N+](=O)[O-]

Row | melting point | SMILES
70 | 146 to 149 °C | Cc1ccc(C(=O)O)c(C(=O)O)c1
71 | 163 to 166 °C | O=C(CCl)NNC(=O)c1ccccc1
72 | 53 to 59 °C | COC(=O)c1ccc(C(=O)Cl)cc1
73 | 67.5 °C | Nc1ccc(I)cc1
74 | 136 °C | CSc1nnc(S)s1
75 | 200 to 203 °C | O=C(O)C=CC(=O)Nc1ccc(Cl)cc1
76 | 222 °C | NS(=O)(=O)c1cc2c(s1)SCCC2=O
77 | 118 °C | Cc1cc(N=Nc2ccccc2)c(C(C)C)cc1[N+]([O-])=Nc1ccccc1
78 | 113 °C | O=C(O)c1ccccc1Oc1ccccc1
79 | 89 to 91 °C | O=[N+]([O-])c1cccnc1N1CCOCC1
80 | 155 to 157 °C | CC1(C)C(=O)OC2=C(CCCC2=Cc2ccccc2)C1c1ccccc1 (stereo unspecified)
81 | 87 to 90 °C | OCc1csc(-c2cccs2)n1
82 | 250 °C | Nc1ccc(N=Nc2ccc(N)cc2)cc1
83 | 174 °C | CC(C)(C)N(NC(=O)c1ccccc1)C(=O)c1cccc(C#N)c1
84 | 140 to 144 °C | ON=C(c1ccccc1)c1ccccc1
85 | 52 to 54 °C | Cc1cc(CO)n(C)n1
86 | 230 °C | CNC1=CC(=O)c2ccccc2C1=O
87 | 37 °C | Cc1ccc(C)c(C)n1
88 | 157 °C | N#CCCN(CCO)c1ccc(N=Nc2ccc([N+](=O)[O-])cc2Cl)cc1
89 | 263 to 268 °C | Cc1nc(-c2ccc(C(=O)O)cc2)cs1
90 | 229 to 232 °C | S=c1[nH]c2ccc(Cl)cc2o1
91 | 236 to 238 °C | Sc1nnc(-c2ccco2)n1-c1ccc(OCc2ccccc2)cc1
92 | 128 °C | COc1ccc(NN=C2C(=O)OC(C)(C)OC2=O)cc1

Row | melting point | SMILES
93 | 191 to 198 °C | CS(=O)(=O)c1ccc(N)c(Cl)c1
94 | 152 °C | O=C1N(c2ccccc2)C(=O)[C@]2(Cl)C=C(c3ccccc3)[C@]12Cl
95 | -29 °C | CC1CCCCC1(C)C (stereo unspecified)
96 | 188 to 192 °C | NC(=S)CS(=O)(=O)c1ccc(Cl)cc1
97 | 211 °C | O=Cc1c[nH]c2ccc(Cl)cc12
98 | 204 to 206 °C | CC(=O)NC(Cc1c[nH]c2ccccc12)C(=O)O (racemic)
99 | 249 °C | N#C/C(=C\c1ccc(Cl)cc1Cl)c1nc2ccccc2[nH]1
100 | 125 to 126 °C | Nc1cscc1S(=O)(=O)c1ccccc1
101 | 40 °C | COc1ccc(OC)c(N=C=O)c1
102 | 130 to 135 °C | Cc1nc(-c2ccc(Br)cc2)cs1
103 | 155 to 156 °C | N#CC1=C(N)Oc2ccc(Cl)cc2C1C(C#N)C#N (stereo unspecified)
104 | 161 °C | Clc1ncccc1-c1ccc(Br)nc1
105 | 72 °C | O=CCC=O
106 | 0 °C | CCCCCCCCSCCO
107 | 132 °C | O=C1c2ccccc2C(=O)N1CCNCCN1C(=O)c2ccccc2C1=O
108 | 275 °C | c1ccc(N=Nc2ccc(N=Nc3ccc(/N=N/c4ccc(N=Nc5ccccc5)cc4)cc3)cc2)cc1
109 | 227 to 231 °C | O=C(O)c1cscc1C(=O)O
110 | -80 °C | CC=CCCCCC
111 | 30 to 32 °C | BrCC12CC3CC(CC(C3)C1)C2
112 | 212 to 215 °C | O=C(Nc1ccccc1)c1cccc(S(=O)(=O)Nc2ccccc2)c1
113 | 108 °C | N#Cc1c(Cl)ccc([N+](=O)[O-])c1Cl
114 | 41.5 °C | CCCCCOc1ccc(/N=N/c2ccc(CCCC)cc2)cc1Cl

Row | SMILES | melting point
115 | CC[C@@]1(O)CC[C@H]2[C@@H]3CCC4CC(OC(C)=O)CC[C@]4(C)[C@H]3CC[C@@]21C (stereo partly specified) | 164 to 165 °C
116 | CC12CCC3C(C(=O)CC4CC(O)CCC43C)C1CCC2=O (stereo unspecified) | 199 to 200 °C
117 | CNC(=O)Oc1ccccc1C1OCCO1 | 114 °C
118 | NCCc1ccc(O)cc1 | 164 °C
119 | O=S(=O)(Cl)c1ccc(Br)s1 | 41 °C
120 | O=C(C(Cl)(Cl)Cl)C(Cl)(Cl)Cl | -2 °C
121 | CSC(C)=NOC(=O)N(C)SN(C)C(=O)ON=C(C)SC | 173 °C
122 | Clc1cc2c(c(Cl)c1Cl)Oc1c(Cl)c(Cl)c(Cl)c(Cl)c1O2 | 264 °C
123 | Nc1ccc(Sc2ccc(N)cc2)cc1 | 108 °C
124 | Clc1ccc2c(c1)Oc1c(Cl)c(Cl)c(Cl)c(Cl)c1O2 | 195 °C
125 | CCCCCCCCCc1ccc(OCCOCCO)cc1 | 43 °C
126 | CN1CCCC1C(O)(c1ccccc1)c1ccccc1 (stereo unspecified) | 66 to 69 °C
127 | IC(I)=C(I)I | 187 °C
128 | CC(=O)Oc1ccc(Cl)cc1 | 9 °C
129 | OC1CN2CCCC(O)C2C1O (stereo unspecified) | 144 °C
130 | Clc1cc(Cl)cc(Br)c1 | 83 °C
131 | C=CCC1(C(C)CCC)C(=O)NC(=S)NC1=O (stereo unspecified) | 132 °C
